Test results published in paper PMC5571211 (Scientific Reports, 2017).
Blank lines part the entries; values can stand above or below the compound they belong to.

Columns and labels:
monocytes = assay: Acute cytotoxicity, MTT assay in monocytes; assay type: cell-based, human; conditions: 24 or 48 hrs; diflapolin 10 µM, staurosporine 3 µM
Protocol: Acute cytotoxicity of the compounds was determined using freshly isolated monocytes. Cells (0.2 × 10^6) per sample were seeded in 100 µL buffer on 96-well plates and treated with the test compounds and appropriate controls for 24 or 48 hrs (37 °C, 5% CO2). After addition of MTT (5 mg/mL) for 2 h (37 °C, 5% CO2), cells were lysed by SDS treatment (10%, pH 4.5) for 16–20 hrs and formazan formation was determined by measurement of absorbance at 570 nm.

sEH in HepG2 cells = biological target: T1, sEH in HepG2 cells (Homo sapiens, UniProt P34913); assay: 14,15-DiHETrE formation in HepG2 cells (cell-based sEH assay)
T1 construct: sEH is constitutively expressed in the human liver cancer cell line HepG2; endogenous in cells; host or cells: HepG2
T1 sequence (P34913 1-555): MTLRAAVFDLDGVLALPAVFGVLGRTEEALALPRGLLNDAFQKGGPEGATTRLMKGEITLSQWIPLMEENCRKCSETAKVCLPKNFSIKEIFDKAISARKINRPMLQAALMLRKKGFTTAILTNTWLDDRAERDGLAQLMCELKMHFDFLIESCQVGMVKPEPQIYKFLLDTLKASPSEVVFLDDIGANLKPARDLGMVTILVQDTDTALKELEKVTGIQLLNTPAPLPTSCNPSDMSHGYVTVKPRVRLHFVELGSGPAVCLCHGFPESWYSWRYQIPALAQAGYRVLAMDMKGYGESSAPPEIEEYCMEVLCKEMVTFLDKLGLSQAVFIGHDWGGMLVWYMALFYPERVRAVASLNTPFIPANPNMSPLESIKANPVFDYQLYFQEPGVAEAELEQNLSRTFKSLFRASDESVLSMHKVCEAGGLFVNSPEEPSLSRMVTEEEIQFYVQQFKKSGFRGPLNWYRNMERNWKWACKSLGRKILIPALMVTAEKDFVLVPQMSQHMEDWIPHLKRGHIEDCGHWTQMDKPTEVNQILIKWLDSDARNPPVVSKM
Protocol: To assay the activity of sEH in a cell-based model, HepG2 cells were harvested by trypsinization, pelleted (1,200 rpm, 5 min, 4 °C) and resuspended in PGC buffer to a final concentration of 1.5 × 10^6 cells/mL. […] Briefly, samples were acidified with four volumes of MilliQ water pH 3.5 containing PBS-HCl and subjected to Waters Sep-Pak® Vac 6cc columns (Waters, Milford, MA, USA), washed once with MilliQ and hexane, and eluted with methylformiate. The nitrogen-dried samples were dissolved in 50% methanol, and 14,15-DiHETrE formation was measured by UPLC-MS/MS using an Acquity™ UPLC system (Waters, Milford, MA, USA) and a QTRAP 5500 Mass Spectrometer (ABSciex, Darmstadt, Germany) equipped with a Turbo V™ Source and electrospray ionization (ESI). […] Ion spray voltage was set to 4000 V, the heater temperature to 500 °C, the declustering potential to 50–80 eV, the entrance potential to 10 eV, the collision cell exit potential to 10–13 eV, collision energies of 10 eV, the spray gas pressure to 40 psi, medium collision gas and the curtain gas pressure to 35 psi.

human recombinant LTA4-H = biological target: T2, human recombinant LTA4-H (Homo sapiens, UniProt P09960); assay: LTA4 hydrolase activity, co-incubation of isolated 5-LOX and LTA4-H; assay type: biochemical; conditions: diflapolin up to 10 µM, AUDA 10 µM, SC57461A 0.3 µM, zileuton 3 µM
T2 construct: gift of Dr. E. Proschak, Goethe University, Frankfurt
T2 sequence (P09960 2-611 limits assumed): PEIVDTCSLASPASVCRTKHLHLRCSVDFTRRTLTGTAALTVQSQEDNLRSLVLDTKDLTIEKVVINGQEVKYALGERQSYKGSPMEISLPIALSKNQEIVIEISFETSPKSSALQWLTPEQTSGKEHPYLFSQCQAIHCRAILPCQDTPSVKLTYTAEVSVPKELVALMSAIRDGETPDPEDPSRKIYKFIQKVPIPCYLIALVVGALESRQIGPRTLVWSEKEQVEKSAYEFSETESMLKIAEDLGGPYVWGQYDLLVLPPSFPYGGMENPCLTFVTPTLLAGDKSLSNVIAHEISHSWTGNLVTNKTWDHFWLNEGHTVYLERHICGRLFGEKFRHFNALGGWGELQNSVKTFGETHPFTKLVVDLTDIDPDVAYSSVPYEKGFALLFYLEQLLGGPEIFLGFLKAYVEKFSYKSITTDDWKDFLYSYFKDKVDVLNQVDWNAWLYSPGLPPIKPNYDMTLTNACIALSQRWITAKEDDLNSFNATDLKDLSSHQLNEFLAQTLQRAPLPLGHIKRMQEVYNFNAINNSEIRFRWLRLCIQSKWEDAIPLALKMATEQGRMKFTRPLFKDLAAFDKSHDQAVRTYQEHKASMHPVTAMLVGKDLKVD
Protocol: In order to determine the activity of LTA4-H, aliquots of human recombinant 5-LOX (0.5 µg) and 10 µg of human recombinant LTA4-H (kindly provided by Dr. E. Proschak, Goethe University, Frankfurt, Germany) were suspended in 1 mL PBS containing 1 mM EDTA and pre-incubated with test compounds or vehicle (0.1% DMSO) for 10 min on ice. The specific LTA4-H inhibitor SC57461A (0.3 µM) was used as reference drug. Subsequently, incubations were stimulated with 20 µM AA and 2 mM CaCl2 for additional 10 min at 37 °C. The reaction was stopped by 1 volume ice-cold methanol, 530 µL acidified PBS and 200 ng of PGB1 as internal standard were added and subjected to solid phase extraction. All LTB4 isomers were analyzed by HPLC as described above.

recombinant LTA4-H = system: recombinant LTA4-H; set-up: method as in PMID 11805219; conditions: read-out: IC50 against recombinant LTA4-H; cited from earlier work
[1] = system: AA release (cPLA2) in neutrophils; assay: [3H]-labeled arachidonic acid release in neutrophils; assay type: cell-based, human; conditions: [3H]AA-pre-labelled neutrophils; diflapolin 1 µM, RSC-3388 10 µM
Protocol: Freshly isolated human neutrophils were resuspended in RPMI 1640 medium to a final cell density of 10^7 cells/mL and incubated with 0.5 µCi/mL of [^3H]-labeled arachidonic acid ([^3H]-AA), corresponding to a concentration of 5 nM of the fatty acid, for 2 hrs (37 °C, 5% CO2). Cells were washed twice to remove unincorporated [^3H]-AA and resuspended in PBS containing glucose (0.1%), fatty acid-free BSA (2 mg/mL) and CaCl2 (1 mM). […] The reaction was stopped on ice and cells were centrifuged at 1,200 rpm (10 min, 4 °C). The collected supernatants were combined with 2 mL of liquid scintillation counting solution (Rotiszint eco plus, Carl Roth, Karlsruhe, Germany) and assayed for radioactivity by scintillation counting (Micro Beta Trilux, Perkin Elmer, Waltham, MA).

[2] = biological target: T3, co-localization of 5-LOX with FLAP (Homo sapiens, UniProt P20292); assay: Immunofluorescence microscopy of 5-LOX subcellular redistribution / co-localization with FLAP; assay type: cell-based; conditions: human neutrophils or monocytes; diflapolin 1 µM, MK886 0.3 µM, zileuton 3 µM
T3 construct: endogenous in cells; host or cells: freshly isolated human monocytes (immunofluorescence also in neutrophils)
T3 sequence (P20292 1-161): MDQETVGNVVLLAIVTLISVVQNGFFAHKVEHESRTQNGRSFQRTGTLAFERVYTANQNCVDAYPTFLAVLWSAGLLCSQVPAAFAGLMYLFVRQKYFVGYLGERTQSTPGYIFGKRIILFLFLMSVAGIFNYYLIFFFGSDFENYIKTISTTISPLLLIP
Protocol: The incubations were stopped by paraformaldehyde fixation (4%, 20 min, RT) and cells were permeabilized using 100% ice-cold acetone (5 min, 4 °C). Blocking with non-immune goat serum (30 min, RT) was performed prior to overnight incubation (4 °C) with primary monoclonal-mouse-anti-5-LOX antibody (1:100 dilution, a generous gift from Dr. D. Steinhilber, Goethe University Frankfurt, Germany) and polyclonal-rabbit-anti-FLAP antibody (5 µg/mL, Abcam, Cambridge, UK). […] Cells were visualized by a Zeiss Axiovert 200 M microscope, and a Plan Neofluar × 100/1.30 Oil (DIC III) objective (Carl Zeiss, Jena, Germany) and image acquisition was performed using an AxioCam MR camera (Carl Zeiss).

5-LOX/FLAP complex = biological target: T4, 5-LOX/FLAP complex (Homo sapiens, UniProt P20292); assay: Proximity ligation assay of 5-LOX/FLAP complex assembly in monocytes; assay type: cell-based; conditions: diflapolin 1 µM, MK886 0.3 µM, zileuton 3 µM
T4 construct: endogenous in cells; host or cells: freshly isolated human monocytes (immunofluorescence also in neutrophils)
T4 sequence (P20292 1-161): T3 sequence (P20292 1-161)
Protocol: In situ protein interaction of 5-LOX and FLAP was analyzed by proximity ligation assay as described before[37] and referring to the manufacturer’s protocol. In brief, freshly isolated monocytes were treated as described for IF above. Overnight incubations with primary antibodies were then treated for 1 h (37 °C) with oligonucleotide-labeled specific secondary antibodies (PLA probes anti-mouse MINUS and anti-rabbit PLUS). Formation of circled DNA sequences was induced by addition of ligase and oligonucleotide mixture (30 min at 37 °C). Rolling-circle-amplification of newly generated DNA template was performed (90 min, 37 °C) including hybridization of fluorescently-labeled oligonucleotides within the formed DNA strands, resulting in visualization of protein-protein interactions recognized as magenta-stained dots. Nuclear DNA staining with DAPI and image acquisition was performed as described above. Overview images were obtained using a Plan Neofluar 40/1.30 Oil (DIC III) objective (Carl Zeiss).

[3] = system: 5-LOX activity in monocytes, neutrophils; assay: cells; conditions: Homo sapiens, read-out: IC50 5-LOX activity in cell-based assays
Protocol: In order to examine 5-LOX product formation in intact human neutrophils and monocytes, freshly isolated cells were resuspended in PBS buffer containing 0.1% glucose and 1 mM CaCl2 (PGC buffer) to a final cell density of 5 × 10^6 or 2 × 10^6, respectively. […] 5-LOX product formation was stopped by addition of one volume of ice-cold methanol, samples were subjected to solid phase extraction after addition of 200 ng PGB1 as internal standard and 5-LOX products were analyzed by RP-HPLC as described above.

SMILES: CN[C@@H]1C[C@H]2O[C@@](C)([C@@H]1OC)n1c3ccccc3c3c4c(c5c6ccccc6n2c5c31)C(=O)NC4 [staurosporine]
- viability of monocytes, MTT assay (monocytes): strongly impaired cell viability

SMILES: CN(CCCOc1ccc(Cc2ccccc2)cc1)CCC(=O)O.Cl [SC57461A, 3-[methyl[3-[4-(phenylmethyl)phenoxy]propyl]amino]propanoic acid HCl]
- effect on sEH in the cell-based sEH assay (sEH in HepG2 cells): no impact
- effect on LTA4-H activity (LTB4 formation) (human recombinant LTA4-H): blocked LTB4 biosynthesis
- IC50 (recombinant LTA4-H): 0.1 µM

SMILES: CC(C)CN(Cc1ccccc1-c1ccccc1)[C@@H]1C[C@@H](CNC(=O)/C=C/c2ccc(/C=C3\SC(=O)NC3=O)cc2)N(C(=O)c2ccccc2C(=O)c2ccc(F)cc2F)C1 [RSC-3388]
- release of AA upon A23187-stimulation [1]: suppressed AA liberation

- effect on LTA4-H activity (LTB4 formation) (human recombinant LTA4-H): showed the same pattern as diflapolin
SMILES: O=C(O)CCCCCCCCCCCNC(=O)NC12CC3CC(CC(C3)C1)C2 [AUDA]

SMILES: CC(c1cc2ccccc2s1)N(O)C(N)=O (stereo not shown) [zileuton]
- effect on LTA4-H activity (LTB4 formation) (human recombinant LTA4-H): reduced the formation of all LTB4 isomers
- co-localization of 5-LOX with FLAP [2]: neither diflapolin nor the FLAP inhibitor MK886 or the 5-LOX inhibitor zileuton prevented co-localization
- 5-LOX/FLAP complex assembly (PLA) (5-LOX/FLAP complex): failed
- IC50 [3]: 1.5 µM
